IC50 data for two compounds are collected here from patent publication US20070037820A1, “Substituted piperazines as metabotropic glutamate receptor antagonists” (AstraZeneca AB, priority 2005, published 2007).

Broadly, the pIC50 is −log10 of the IC50, conventionally taken in molar units.

pIC50: −log10 of the molar value.

The assay has as its target T1, human mGluR5d (Homo sapiens, UniProt P41594).
T1 construct: expressed in transfected cells; host or cells: GHEK (Human Embryonic Kidney cells expressing glutamate transporter) for the IP3 assay
In words: Functional assessment of mGluR5 antagonism in cell lines expressing mGluR5d (FLIPR calcium mobilization / IP3 turnover; which assay gave the values is not stated). The conditions noted are these: cells expressing human mGluR5d; assay (FLIPR or IP3) not specified. The format is cell-based. The source says:
The pharmacological properties of the compounds of the invention can be analyzed using standard assays for functional activity. Examples of glutamate receptor assays are well known in the art as described in for example Aramori et al., Neuron 8:757 (1992), Tanabe et al., Neuron 8:169 (1992), Miller et al., J. Neuroscience 15: 6103 (1995), Balazs, et al., J. Neurochemistry 69:151 (1997). The methodology described in these publications is incorporated herein by reference. Conveniently, the compounds of the invention can be studied by means of an assay that measures the mobilization of intracellular calcium, [Ca^2+]i in cells expressing mGluR5.
Intracellular calcium mobilization was measured by detecting changes in fluorescence of cells loaded with the fluorescent indicator fluo-3. Fluorescent signals were measured using the FLIPR system (Molecular Devices). […]
FLIPR experiments were done using a laser setting of 0.800 W and a 0.4 second CCD camera shutter speed. […] After each addition of the compound, the fluorescence signal was sampled 50 times at 1 second intervals followed by 3 samples at 5 second intervals. Responses were measured as the peak height of the response within the sample period. […]
We have validated a secondary functional assay for mGluR5d based on Inositol Phosphate (IP3) turnover. IP3 accumulation is measured as an index of receptor mediated phospholipase C turnover. […]
(In general: A change in cytosolic calcium serves as a functional read-out for many receptors and channels.)

T1 sequence (P41594 21-942 isoform P41594-3 limits assumed): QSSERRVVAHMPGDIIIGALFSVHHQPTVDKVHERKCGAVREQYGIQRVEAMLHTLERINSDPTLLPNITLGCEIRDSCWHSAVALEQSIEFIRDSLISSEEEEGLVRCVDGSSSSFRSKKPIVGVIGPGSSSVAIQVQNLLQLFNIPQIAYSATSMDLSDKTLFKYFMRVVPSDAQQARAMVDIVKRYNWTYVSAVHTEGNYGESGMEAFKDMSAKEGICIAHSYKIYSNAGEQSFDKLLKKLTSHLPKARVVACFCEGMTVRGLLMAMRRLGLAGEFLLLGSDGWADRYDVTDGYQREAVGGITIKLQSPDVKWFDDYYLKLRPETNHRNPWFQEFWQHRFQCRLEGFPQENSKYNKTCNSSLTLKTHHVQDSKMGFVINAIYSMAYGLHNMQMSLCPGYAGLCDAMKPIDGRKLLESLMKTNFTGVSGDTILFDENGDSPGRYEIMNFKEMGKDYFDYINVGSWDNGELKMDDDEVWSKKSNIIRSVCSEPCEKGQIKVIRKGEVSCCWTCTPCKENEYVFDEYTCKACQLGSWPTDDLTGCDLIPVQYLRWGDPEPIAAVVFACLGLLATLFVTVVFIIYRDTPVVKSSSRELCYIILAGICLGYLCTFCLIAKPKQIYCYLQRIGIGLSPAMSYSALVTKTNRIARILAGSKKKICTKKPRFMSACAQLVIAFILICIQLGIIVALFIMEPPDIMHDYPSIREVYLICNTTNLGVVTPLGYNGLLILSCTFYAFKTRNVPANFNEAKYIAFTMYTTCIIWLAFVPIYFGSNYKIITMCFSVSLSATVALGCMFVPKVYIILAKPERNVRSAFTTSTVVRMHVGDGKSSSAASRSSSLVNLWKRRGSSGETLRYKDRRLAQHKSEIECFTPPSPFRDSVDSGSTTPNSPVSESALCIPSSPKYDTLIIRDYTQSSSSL

In the case of `CC(c1noc(-c2cccc(Cl)c2)n1)N1CCN(c2nccnc2C#N)CC1` (centres unmarked) [Example 15.11, 3-(4-{1-[5-(3-chlorophenyl)-1,2,4-oxadiazol-3-yl]ethyl}piperazin-1-yl) pyrazine-2-carbonitrile], the pIC50 was 7.00.
Consider `N#Cc1ccc(N2CCN(Cc3cc(-c4cc(Cl)ccc4F)on3)CC2)nc1` [Example 16.1, 6-(4-{[5-(5-chloro-2-fluorophenyl)isoxazol-3-yl]methyl}piperazin-1-yl) nicotinonitrile], for which the pIC50 was 6.70.
